We go through 14 compounds from ChEMBL document CHEMBL1150322, “Aminopyrazine CB1 receptor inverse agonists” (Bioorg Med Chem Lett, 2008).

As a reminder, the inhibition is the drop in the measured response relative to a control, in per cent. One may read the Ki as the equilibrium dissociation constant of an inhibitor or competing ligand from its target. The term solubility denotes the dissolved amount per volume that the medium holds. The IC50 is the concentration needed to halve the response being measured.

In one data set the target is CYP3A4 (Homo sapiens, UniProt P08684). Kind of data set: in vitro. The settings on record: human liver microsomes, probe midazolam. A general note: Liver microsomes are vesicles of endoplasmic reticulum, rich in cytochrome P450 enzymes.
Data set [1] has as its target T1, Cannabinoid receptor 1 (Homo sapiens, UniProt P21554). It is filed as functional, cell-based, Sf9.
Description: Antagonist activity at human CB1 receptor expressed in SF9 cells assessed as inhibition of CP-55940-stimulated GTPgammaS binding
A short description of a further data set: physchem. The settings on record: aqueous, pH 7.4.
A further data set deals with Cannabinoid receptor 2 (Homo sapiens, UniProt P34972).
Data set [2] deals with T1, Cannabinoid receptor 1. It is filed as functional, cell-based, Sf9. This is another data set of the same source.
Description: Inverse agonist at human CB1 receptor expressed in SF9 cells assessed as decrease in GTPgammaS level
Data set [3] addresses Cannabinoid receptor 1 (Rattus norvegicus, UniProt P20272).
Description: Antagonist activity at rat CB1 receptor in SF9 cells assessed as inhibition of CP-55940-stimulated GTPgammaS binding
In data set [4] the test system is Rattus norvegicus. Nature of the data set: Inhibition of food intake in overnight fed diet-induced obesity rat model at 10 mg/kg, po after 24 hrs relative to control. It is filed as functional.
Data set [5] is filed under the species Homo sapiens. Nature of the data set: Selectivity for human CB1 receptor over human CB2 receptor.
Data set [6] deals with Rattus norvegicus. Kind of data set: Reduction in cumulative food intake in subchronic diet-induced rat at 1 mg/kg, po qd after 18 days relative to control. It is filed as functional. On the set-up: scale not given: the % may be the effect or the level left.
A short description of data set [7]: Drug level in rat plasma 5 mg/kg, po qd after 19 days measured 17 hrs after last dose. The class given is ADME, organism-based. On the set-up: dose 5 mg/kg, route oral. The settings on record: read-out: Drug uptake.
Data set [8] in a line: Drug level in rat brain at 5 mg/kg, po qd after 19 days measured 17 hrs after last dose. It is filed as ADME, organism-based. The arrangement: dose 5 mg/kg, route oral. The settings on record: read-out: Drug uptake.
For data set [9], the species on record is Rattus norvegicus. Nature of the data set: Decrease in blood leptin level in rat after 18 days. It is filed as functional, organism-based.
Data set [10] deals with Homo sapiens. Kind of data set: Ex vivo receptor occupancy by displacement of [3H]CP-55940 from human CB1 receptor in […] after 3 hrs. It is filed as functional. The settings on record: read-out: ID50 (the source's name).
The species entered for data set [11] is Rattus norvegicus. Kind of data set: animal or person. The settings on record: po, 24 h, read-out: INH.
Description: Inhibition of food intake in overnight fed diet-induced obesity rat model at 5 mg/kg, po after 24 hrs relative to control
The species named for data set [12] is Rattus norvegicus. Nature of the data set: Decrease in blood glucose level in rat after 18 days. The class given is functional, organism-based.
A short description of data set [13]: Drug level in rat plasma 1 mg/kg, po qd after 19 days measured 17 hrs after last dose. The class given is ADME, organism-based. The arrangement: dose 1 mg/kg, route oral. The settings on record: read-out: Drug uptake.
The subject of data set [14] is Rattus norvegicus. Kind of data set: Reduction in body weight in subchronic diet-induced rat at 5 mg/kg, po qd after 18 days relative to control. The class given is functional. On the set-up: scale not given: the % may be the effect or the level left.
A short description of data set [15]: Drug level in rat brain at 1 mg/kg, po qd after 19 days measured 17 hrs after last dose. The class given is ADME, organism-based. On the set-up: dose 1 mg/kg, route oral. The settings on record: read-out: Drug uptake.
The nature of data set [16]: Drug level at Tmax in rat brain at 1 mg/kg, po qd after 19 days. The class given is ADME, organism-based. On the set-up: dose 1 mg/kg, route oral. As to conditions: read-out: Drug uptake.
Data set [17] concerns Rattus norvegicus. Nature of the data set: Reduction in cumulative food intake in subchronic diet-induced rat at 5 mg/kg, po qd after 18 days relative to control. The class given is functional. The arrangement: scale not given: the % may be the effect or the level left.
In data set [18] the test system is Rattus norvegicus. Kind of data set: Reduction in body weight in subchronic diet-induced rat at 1 mg/kg, po qd after 18 days relative to control. The class given is functional. The arrangement: scale not given: the % may be the effect or the level left.
Data set [19] is filed under the species Rattus norvegicus. Kind of data set: Decrease in blood insulin level in rat after 18 days. It is filed as functional, organism-based.
Data set [20] is described as follows: Drug level at Tmax in rat plasma at 5 mg/kg, po qd after 19 days. The arrangement: dose 5 mg/kg, route oral. It is filed as ADME, organism-based. As to conditions: read-out: Drug uptake.
The target of data set [21] is Rattus norvegicus. Nature of the data set: Ex vivo receptor occupancy by displacement of [3H]CP-55940 from rat CB1 receptor in po dosed rat cerebellum membrane after 3 hrs. The class given is functional, organism-based. A general note: Displacement assays read how much labelled ligand stays bound in the presence of the test substance.
The nature of data set [22]: Drug level at Tmax in rat brain at 5 mg/kg, po qd after 19 days. The class given is ADME, organism-based. On the set-up: dose 5 mg/kg, route oral. The settings on record: read-out: Drug uptake.
Data set [23] is described as follows: Drug level at Tmax in rat plasma at 1 mg/kg, po qd after 19 days. The class given is ADME, organism-based. On the set-up: dose 1 mg/kg, route oral. As to conditions: read-out: Drug uptake.

Molecules are shown by their SMILES. Values after ≈ are worked out from the molar mass of the structure shown. Active and inactive are the calls of the source. The calls are words filed in the database; no cut-off is given here.

T1 sequence (P21554 whole entry): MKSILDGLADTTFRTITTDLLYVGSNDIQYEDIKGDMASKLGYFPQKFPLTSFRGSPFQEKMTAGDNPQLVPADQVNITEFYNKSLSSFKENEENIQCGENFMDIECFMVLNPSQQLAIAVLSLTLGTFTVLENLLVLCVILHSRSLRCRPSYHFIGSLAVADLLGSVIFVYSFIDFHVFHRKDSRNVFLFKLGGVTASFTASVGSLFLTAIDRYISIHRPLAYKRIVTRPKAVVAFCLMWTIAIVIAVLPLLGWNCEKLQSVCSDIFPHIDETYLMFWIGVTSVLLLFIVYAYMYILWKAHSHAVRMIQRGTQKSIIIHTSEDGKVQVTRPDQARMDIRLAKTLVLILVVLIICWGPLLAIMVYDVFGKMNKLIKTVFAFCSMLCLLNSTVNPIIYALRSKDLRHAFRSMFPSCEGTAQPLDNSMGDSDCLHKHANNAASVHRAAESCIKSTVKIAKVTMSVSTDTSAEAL
Sequence of Cannabinoid receptor 1 (Rattus norvegicus, UniProt P20272) (P20272 whole entry): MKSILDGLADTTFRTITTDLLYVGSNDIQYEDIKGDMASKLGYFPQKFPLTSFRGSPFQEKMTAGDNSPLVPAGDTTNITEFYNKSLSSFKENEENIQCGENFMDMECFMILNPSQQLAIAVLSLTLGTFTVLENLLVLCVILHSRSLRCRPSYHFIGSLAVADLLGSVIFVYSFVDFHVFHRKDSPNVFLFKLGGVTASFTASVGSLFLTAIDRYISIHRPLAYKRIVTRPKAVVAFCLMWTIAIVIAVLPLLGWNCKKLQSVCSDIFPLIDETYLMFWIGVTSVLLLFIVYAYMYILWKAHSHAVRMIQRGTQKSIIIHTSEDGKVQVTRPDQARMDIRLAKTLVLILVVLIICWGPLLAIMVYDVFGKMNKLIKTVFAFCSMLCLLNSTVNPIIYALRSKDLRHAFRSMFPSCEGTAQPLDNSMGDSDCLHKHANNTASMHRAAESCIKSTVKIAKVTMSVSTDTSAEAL
Sequence of Cannabinoid receptor 2 (P34972 whole entry): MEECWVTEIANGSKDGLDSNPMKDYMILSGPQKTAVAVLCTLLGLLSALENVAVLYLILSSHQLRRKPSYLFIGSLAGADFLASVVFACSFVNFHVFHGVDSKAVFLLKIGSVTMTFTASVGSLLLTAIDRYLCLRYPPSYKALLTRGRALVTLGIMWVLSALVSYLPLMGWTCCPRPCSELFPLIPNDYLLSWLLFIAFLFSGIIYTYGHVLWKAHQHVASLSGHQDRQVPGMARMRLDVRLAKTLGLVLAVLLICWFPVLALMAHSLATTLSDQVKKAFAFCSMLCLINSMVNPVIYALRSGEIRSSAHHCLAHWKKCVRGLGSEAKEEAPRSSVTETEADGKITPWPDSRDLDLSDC
Sequence of CYP3A4 (P08684 whole entry): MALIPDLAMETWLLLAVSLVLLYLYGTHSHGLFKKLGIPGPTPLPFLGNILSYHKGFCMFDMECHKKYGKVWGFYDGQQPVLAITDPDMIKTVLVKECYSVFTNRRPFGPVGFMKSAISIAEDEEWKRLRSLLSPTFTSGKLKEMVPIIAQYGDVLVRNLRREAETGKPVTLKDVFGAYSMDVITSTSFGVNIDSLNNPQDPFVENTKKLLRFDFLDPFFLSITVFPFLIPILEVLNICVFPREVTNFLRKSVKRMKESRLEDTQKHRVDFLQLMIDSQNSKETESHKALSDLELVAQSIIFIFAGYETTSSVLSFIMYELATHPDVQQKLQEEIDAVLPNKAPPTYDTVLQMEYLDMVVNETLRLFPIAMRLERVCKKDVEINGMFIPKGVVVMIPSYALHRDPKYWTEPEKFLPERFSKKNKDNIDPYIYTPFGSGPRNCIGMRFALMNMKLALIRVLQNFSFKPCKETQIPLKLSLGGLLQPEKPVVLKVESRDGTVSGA
Description for Cannabinoid receptor 2: Antagonist activity at human CB2 receptor in SF9 cells assessed as inhibition of CP-55940-stimulated GTPgammaS binding
Description for physchem: Aqueous solubility at pH 7.4

Compound `CCNC1(C(N)=O)CCN(c2cnc(-c3ccc(F)cc3)c(-c3ccc(Cl)cc3Cl)n2)CC1` displayed an inhibition at 5 µM against CYP3A4 of 20.5%. This compound yielded a Ki on Cannabinoid receptor 1 [1] of 1.75 nM.

With `CCNC1(C(N)=O)CCN(c2cnc(-c3ccc(Cl)cc3)c(-c3ccc(C#N)cc3)n2)CC1`, the solubility in “physchem” stood at 36 µg/mL (≈ 78.1 µM). The same compound had a Ki at Cannabinoid receptor 1 [1] of 32.3 nM.

On to `O=S1(=O)CCN(c2cnc(-c3ccc(C(F)(F)F)cc3)c(-c3ccncc3Cl)n2)CC1`, for which the figures for the Ki at Cannabinoid receptor 2, at Cannabinoid receptor 1 [3] and at Cannabinoid receptor 1 [1] were 1900 nM, 0.83 nM and 0.83 nM, respectively. The IC50 against Cannabinoid receptor 1 [2] stood at 4.2 nM. This compound displayed an inhibition at 5 µM on CYP3A4 below 5%. For the same compound, in “physchem”, the solubility was 23 µg/mL (≈ 49.1 µM). Moreover, the inhibition in vivo at 10 mg/kg in the data set on Rattus norvegicus [4] is 71%. Moreover, the Ratio Ki in the data set filed under Homo sapiens [5] is above 2000.

For `CCNC1(C(N)=O)CCN(c2cnc(-c3ccc(Cl)cc3)c(-c3ccccc3Cl)n2)CC1`, the inhibition at 5 µM at CYP3A4 amounted to 9.7%. This compound displayed a solubility in the data set “physchem” of 1.25 µg/mL (≈ 2.66 µM). The affinity on Cannabinoid receptor 1 [1] corresponds to a Ki of 1.66 nM.

As for `CCNC1(C(N)=O)CCN(c2cnc(-c3ccc(OCC)cc3)c(-c3ccccc3Cl)n2)CC1`, 5 µM produced 10% inhibition at CYP3A4. Also, the concentration in solution in the data set “physchem” (solubility) was 1.2 µg/mL (≈ 2.5 µM). The compound further gave a Ki at Cannabinoid receptor 1 [1] of 15 nM.

In the case of `CCNC1(C(N)=O)CN(c2cnc(-c3ccc(C(F)(F)F)cc3)c(-c3ccnc(Cl)c3)n2)C1`, the results for the inhibitory constant (Ki) at Cannabinoid receptor 2, at Cannabinoid receptor 1 [3] and at Cannabinoid receptor 1 [1] were above 50000 nM, 2.06 nM and 1.2 nM, respectively. Moreover, the IC50 on Cannabinoid receptor 1 [2] was determined as 3.07 nM. For the same compound, on CYP3A4, the inhibition at 5 µM was below 5%. In the data set “physchem”, the solubility was determined as 38 µg/mL (≈ 79.7 µM). The same compound had an inhibition in vivo at 10 mg/kg in the data set with Rattus norvegicus [4] of 58%. In addition, the Ratio Ki in the data set filed under Homo sapiens [5] is above 2000.

Regarding `CCNC1(C(N)=O)CCN(c2cnc(-c3ccc(Cl)cc3)c(-c3ccc(Cl)cc3Cl)n2)CC1`, at CYP3A4, the inhibition at 5 µM was below 5%. Also, the affinity on Cannabinoid receptor 1 [1] corresponds to a Ki of 0.91 nM.

`CCNC1(C(N)=O)CCN(c2cnc(-c3ccc(C(F)(F)F)cc3)c(-c3ccnc(Cl)c3)n2)CC1` came in with an inhibition at 5 µM against CYP3A4 below 5%. In the data set “physchem”, this compound registered a solubility of 25.5 µg/mL (≈ 50.5 µM). In addition, affinity at Cannabinoid receptor 1 [1] was put at a Ki of 0.87 nM.

`CCC(=O)NC1CCN(c2cnc(-c3ccc(C(F)(F)F)cc3)c(-c3ccncc3Cl)n2)CC1` came in with an inhibition at 5 µM at CYP3A4 of 11%. Also, in “physchem”, the solubility is 24 µg/mL (≈ 49 µM). This compound also came in with a Ki on Cannabinoid receptor 1 [1] of 0.8 nM.

Compound `CCNC1(C(N)=O)CCN(c2cnc(-c3ccc(Cl)cc3)c(-c3ccncc3)n2)CC1` displayed an inhibition at 5 µM against CYP3A4 of 71%. The compound also showed a solubility in the data set “physchem” of 74.9 µg/mL (≈ 171 µM). The same compound displayed a Ki on Cannabinoid receptor 1 [1] of 9.81 nM.

As for `CCNC1(C(N)=O)CCN(c2cnc(-c3ccc(Cl)cc3)c(-c3ccnc(Cl)c3)n2)CC1`, the inhibition at 5 µM on CYP3A4 worked out at 54%. Moreover, the solubility in “physchem” amounted to 21.8 µg/mL (≈ 46.3 µM). For the same compound, affinity on Cannabinoid receptor 1 [1] was put at a Ki of 0.67 nM.

As for `CC(C)C(=O)NC1CCN(c2cnc(-c3ccc(C(F)(F)F)cc3)c(-c3ccncc3Cl)n2)CC1`, the inhibition constant Ki on Cannabinoid receptor 2 came out at 4940 nM; at Cannabinoid receptor 1 [3], 0.41 nM; at Cannabinoid receptor 1 [1], 0.24 nM; at Rattus norvegicus [21], 4.4 nM. The compound further showed an IC50 at Cannabinoid receptor 1 [2] of 0.54 nM. Besides, the Activity with Rattus norvegicus [6] is 18.8%; in the data set filed under Rattus norvegicus [9], “Dose-dependent effect”; in the data set on Rattus norvegicus [14], 8.5%; with Rattus norvegicus [17], 27.6%; in the data set on Rattus norvegicus [18], 4.8%. Further, the inhibition at 5 µM on CYP3A4 is below 5%. Also, the concentration at 17 h in data set [7] turned out to be 142 ng/mL; in data set [8], 253 ng/mL; in data set [13] it was 44.2 ng/mL; in data set [15] it was 110 ng/mL. The compound further displayed a solubility in the data set “physchem” of 4.5 µg/mL (≈ 8.93 µM). Besides, in the data set on Homo sapiens [10], the ED50 stood at 0.3 mg/kg. Moreover, the inhibition in vivo at 5 mg/kg in the data set listed under Rattus norvegicus [11] was 80%. Also, the result in the data set listed under Rattus norvegicus [12] and in the data set listed under Rattus norvegicus [19] was Active. The Ratio Ki in the data set filed under Homo sapiens [5] was above 2000. For the same compound, the results for the concentration at 456 h in [16] and in data set [22] were 235 ng/mL and 630 ng/mL, respectively. Besides, the Cmax in data set [20] is 346 ng/mL; in data set [23], 121 ng/mL.

On CYP3A4, `CCNC1(C(N)=O)CCN(c2cnc(-c3ccc(OCC)cc3)c(-c3ccc(OCC)cc3)n2)CC1` registered an inhibition at 5 µM below 5%. Moreover, the inhibition constant Ki on Cannabinoid receptor 1 [1] stood at 2.84 nM.

Compound `Cc1c(C(=O)NN2CCCCC2)nn(-c2ccc(Cl)cc2Cl)c1-c1ccc(Cl)cc1` [RIMONABANT] yielded an inhibition at 5 µM against CYP3A4 below 5%. The results for the concentration at 17 h in data set [7] and in [8] were 3 ng/mL and 65 ng/mL, respectively. Further, the solubility in “physchem” came to 0.3 µg/mL (≈ 0.647 µM). Besides, the ED50 in the data set on Homo sapiens [10] was 0.5 mg/kg. Also, in the data set listed under Rattus norvegicus [11], the inhibition in vivo at 5 mg/kg stood at 73%. The result in the data set listed under Rattus norvegicus [12] and in the data set listed under Rattus norvegicus [19] was Active. For the same compound, the Activity with Rattus norvegicus [14] was 4.1%; in the data set on Rattus norvegicus [17], 13.8%. The Cmax in data set [20] amounted to 346 ng/mL. On Rattus norvegicus [21], this compound had a Ki of 1.1 nM. For the same compound, in [22], the concentration at 456 h came to 318 ng/mL.
